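Where inhibition never reached the appropriate level, the endpoint shown equals the highest concentration tested. Otherwise, values were interpolated linearly from a five-concentration, 48-hour dose response in 96-well plates. At the GI50, growth is halved.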 Activity calls are given as the source filed them. No stated cut-off is given here; in the data, active = GI50 up to about 1.1 µM and inactive = higher.
Experiments:
Experiment in all cases: NCI-60 cell line screen, 48 h
[1] = system: HCC 2998
[2] = system: HL-60
[3] = system: KM12
[4] = system: MOLT-4
[5] = system: Malme-3M
[6] = system: NCI-H23
[7] = system: NCI-H522
[8] = system: OVCAR-4
[9] = system: OVCAR-5
[10] = system: SF-295
[11] = system: SK-MEL-28
[12] = system: SK-MEL-2
[13] = system: SNB-19
[14] = system: U-251
[15] = system: UACC-257
[16] = system: UACC-62
[17] = system: UO-31
[18] = system: A549
[19] = system: OVCAR-8
[20] = system: HCT-15

Row | Compound | GI50 [1] | GI50 [2] | GI50 [3] | GI50 [4] | GI50 [5] | GI50 [6] | GI50 [7] | GI50 [8] | GI50 [9] | GI50 [10] | GI50 [11] | GI50 [12] | GI50 [13] | GI50 [14] | GI50 [15] | GI50 [16] | GI50 [17] | GI50 [18] | GI50 [19] | GI50 [20]
1 | CCN(CC)CCCC(C)Nc1cc(-c2ccccc2)nc2cc(OC)ccc12 (stereo not given) | 1.15 µM (inactive) | 2.55 µM (inactive) | 5.33 µM (inactive) | 2.14 µM (inactive) | 10.4 µM (inactive) | 15.4 µM (inactive) | 6.44 µM (inactive) | 4.88 µM (inactive) | 2.48 µM (inactive) | 8.79 µM (inactive) | 6.22 µM (inactive) | 12.6 µM (inactive) | > 10 µM (inactive) | 4.22 µM (inactive) | 17.4 µM (inactive) | 17.6 µM (inactive) | 2.54 µM (inactive) |  |  | 
2 | COc1nc2[nH]ccc2c(=O)[nH]1 | > 100 µM (inactive) | > 100 µM (inactive) | > 100 µM (inactive) | > 100 µM (inactive) | > 100 µM (inactive) | > 100 µM (inactive) |  | > 100 µM (inactive) | > 100 µM (inactive) | > 100 µM (inactive) | > 100 µM (inactive) | > 100 µM (inactive) | > 100 µM (inactive) | > 100 µM (inactive) | > 100 µM (inactive) |  | > 100 µM (inactive) | > 100 µM (inactive) | > 100 µM (inactive) | 
3 | CCC(C)(C)n1c(C)nc2c1C(=O)c1ccccc1C2=O | 45.8 µM (inactive) | 7.62 µM (inactive) | 23.8 µM (inactive) | 18.8 µM (inactive) | 32.2 µM (inactive) | 27.7 µM (inactive) | 28.4 µM (inactive) | 37.3 µM (inactive) |  | 38.9 µM (inactive) | 46.8 µM (inactive) | 18.7 µM (inactive) | 53.3 µM (inactive) | 28.8 µM (inactive) | 33.5 µM (inactive) | 13.5 µM (inactive) | 25.7 µM (inactive) | 36.5 µM (inactive) | 36.1 µM (inactive) | 23.1 µM
4 | CC1(C)OP(=O)(O)CC1=O | > 100 µM (inactive) |  | > 100 µM (inactive) |  | > 100 µM (inactive) | > 100 µM (inactive) | > 100 µM (inactive) | > 100 µM (inactive) | > 100 µM (inactive) | > 100 µM (inactive) | > 100 µM (inactive) | > 100 µM (inactive) | > 100 µM (inactive) | > 100 µM (inactive) | > 100 µM (inactive) | > 100 µM (inactive) | > 100 µM (inactive) | > 100 µM (inactive) | > 100 µM (inactive) | > 100 µM
5 | Cc1cn(Cc2cnnn2CC2OC(n3cc(C)c(=O)[nH]c3=O)CC2O)c(=O)[nH]c1=O (stereo not given) | > 100 µM (inactive) |  | > 100 µM (inactive) | > 100 µM (inactive) | > 100 µM (inactive) | > 100 µM (inactive) |  | > 100 µM (inactive) | > 100 µM (inactive) | > 100 µM (inactive) | > 100 µM (inactive) | > 100 µM (inactive) | > 100 µM (inactive) | > 100 µM (inactive) | > 100 µM (inactive) | > 100 µM (inactive) | > 100 µM (inactive) | > 100 µM (inactive) | > 100 µM (inactive) | > 100 µM
6 | CN1C(=O)CN=C(c2ccccc2F)c2cc(N=C=S)ccc21 | 50.8 µM (inactive) | 34.2 µM (inactive) | 44.6 µM (inactive) |  | > 100 µM (inactive) | 62.4 µM (inactive) | 0.665 µM (active) | 35.4 µM (inactive) | > 100 µM (inactive) | 52.8 µM (inactive) |  | 92.3 µM (inactive) | 60 µM (inactive) | 48.4 µM (inactive) | 43.5 µM (inactive) | 25.1 µM (inactive) | 17.1 µM (inactive) | 33.9 µM (inactive) | 47.5 µM (inactive) | 35.8 µM
7 | O=c1c(-c2ccccc2)c(SCCCN2CCCCC2)n(-c2ccccc2)c(=S)n1-c1ccccc1 | 3.83 µM (inactive) | 16.6 µM (inactive) | 19.4 µM (inactive) | 18.2 µM (inactive) | 21.5 µM (inactive) | 19 µM (inactive) | 22.4 µM (inactive) | 24 µM (inactive) | > 100 µM (inactive) | 17.1 µM (inactive) | 16.9 µM (inactive) | 15.9 µM (inactive) |  | 15.6 µM (inactive) | 16.8 µM (inactive) | 16.1 µM (inactive) |  |  | 18.6 µM (inactive) | 17.3 µM
8 | FC(F)(F)C(C1=NC(C(F)(F)F)(C(F)(F)F)N=C(N2CCOCC2)O1)C(F)(F)F | 41.5 µM (inactive) | 5.57 µM (inactive) | 39.3 µM (inactive) | 28.9 µM (inactive) |  | > 10 µM (inactive) | 20.2 µM (inactive) | 22.9 µM (inactive) | 18.1 µM (inactive) | 16 µM (inactive) | 20.1 µM (inactive) | 22.2 µM (inactive) | 25.9 µM (inactive) | 19.9 µM (inactive) | 20.8 µM (inactive) | 13.5 µM (inactive) | 25.4 µM (inactive) | 18.5 µM (inactive) | 15.3 µM (inactive) | 26.1 µM
9 | Cc1ccc([N+](=O)[O-])cc1NC(=O)C(=O)C(C(=O)c1ccccc1F)C1OC(=O)c2ccccc21 (stereo not given) | 29.7 µM (inactive) | 26.9 µM (inactive) | 52.5 µM (inactive) | 36.1 µM (inactive) |  | 38.5 µM (inactive) | 20.3 µM (inactive) | 65 µM (inactive) | 61.4 µM (inactive) | 42.6 µM (inactive) | 36.4 µM (inactive) | 25.9 µM (inactive) | 15.3 µM (inactive) | 18.1 µM (inactive) | > 100 µM (inactive) | 33.7 µM (inactive) | 49.1 µM (inactive) | 50.1 µM (inactive) | 25.2 µM (inactive) | 26.7 µM
10 | CCOC(=O)CSc1c(C(=O)OCC)c(=O)n(-c2ccccc2)c(=S)n1-c1ccccc1 |  | 17.1 µM (inactive) | 59.2 µM (inactive) | 5.61 µM (inactive) | > 100 µM (inactive) | 22.7 µM (inactive) | > 100 µM (inactive) | 53.5 µM (inactive) | > 100 µM (inactive) | 36.7 µM (inactive) | > 100 µM (inactive) | 83 µM (inactive) | 34.7 µM (inactive) | 13.3 µM (inactive) | 29.2 µM (inactive) | 36.3 µM (inactive) | 26.9 µM (inactive) | 32.1 µM (inactive) | 41 µM (inactive) | 21.5 µM
11 | CC(=O)OCC1OC(n2c(-c3ccc(Cl)cc3)cc(-c3ccccc3)c(C#N)c2=S)C(OC(C)=O)C(OC(C)=O)C1OC(C)=O (stereo not given) | 7.14 µM (inactive) | 3.18 µM (inactive) | 18.5 µM (inactive) | 12.8 µM (inactive) | 2.87 µM (inactive) | 14.2 µM (inactive) | 18.1 µM (inactive) | 1.79 µM (inactive) | 19.6 µM (inactive) | 11.5 µM (inactive) | 6.5 µM (inactive) |  | 8.53 µM (inactive) | 8.67 µM (inactive) |  | 3.85 µM (inactive) | 23.5 µM (inactive) | 14.5 µM (inactive) | 10 µM (inactive) | 29.9 µM
12 | N#CC1(CCCI)CCCC1 | 33.7 µM (inactive) | 6.1 µM (inactive) | 17.5 µM (inactive) | 13.8 µM (inactive) | 18.8 µM (inactive) | 9.79 µM (inactive) | 3.24 µM (inactive) |  | 25.1 µM (inactive) | 29.4 µM (inactive) | 16.5 µM (inactive) | 15.9 µM (inactive) | 15.8 µM (inactive) | 13.4 µM (inactive) | 22.6 µM (inactive) | 11 µM (inactive) | 27.9 µM (inactive) | 20.6 µM (inactive) | 51.1 µM (inactive) | 14.5 µM
13 | CC1(C)COC2C(N(Cc3ccccc3)Cc3ccccc3)C(=O)N21 (stereo not given) | 41.7 µM (inactive) | 22.3 µM (inactive) | 37.8 µM (inactive) | 25.9 µM (inactive) | 38.6 µM (inactive) | 34.3 µM (inactive) | 19.4 µM (inactive) | 27.9 µM (inactive) | > 100 µM (inactive) | 32.1 µM (inactive) | 42.3 µM (inactive) |  | 24 µM (inactive) | 26.3 µM (inactive) | 98.6 µM (inactive) | 25.1 µM (inactive) | 64.3 µM (inactive) | 32.6 µM (inactive) | 32.1 µM (inactive) | 39.6 µM
14 | N#Cc1c(-c2ccccc2)cn(C(=O)c2ccccc2)c1N | < 0.01 µM (active) | > 100 µM (inactive) | > 100 µM (inactive) | > 100 µM (inactive) | > 100 µM (inactive) | > 100 µM (inactive) | > 100 µM (inactive) | 21.3 µM (inactive) | > 100 µM (inactive) | > 100 µM (inactive) | > 100 µM (inactive) | > 100 µM (inactive) | > 100 µM (inactive) | > 100 µM (inactive) |  | > 100 µM (inactive) | > 100 µM (inactive) | > 100 µM (inactive) | > 100 µM (inactive) | > 100 µM
15 | CCOC(=O)Nc1ccc(S(=O)(=O)NCCCl)cc1.CCOC(=O)Nc1ccc(S(=O)(=O)NCCCl)cc1.O=C(O)c1ccc(/N=N/Cl)cc1O | > 100 µM (inactive) | > 100 µM (inactive) | > 100 µM (inactive) | > 100 µM (inactive) | > 100 µM (inactive) | > 100 µM (inactive) | > 100 µM (inactive) | > 100 µM (inactive) | > 100 µM (inactive) | > 100 µM (inactive) | > 100 µM (inactive) | > 100 µM (inactive) |  | > 100 µM (inactive) | > 100 µM (inactive) | > 100 µM (inactive) | > 100 µM (inactive) | > 100 µM (inactive) | > 100 µM (inactive) | > 100 µM

Source: ChEMBL document CHEMBL1201862, “PubChem BioAssay data set” (2004)
